Experimental data from DBAASP.
≈ marks a conversion by molar mass, not a printed value. Where “and” joins values, the source holds several entries; their conditions need not be identical. Equal entries are not always repeated. One block for each compound: values may come before it.

Key:
Assay in all cases: ≥ marks a high value that may be exact or a test limit, other limits are often not marked, values filed in µg/mL are converted to µM
[1] = system: Mannheimia haemolytica 82-25
Escherichia coli TOP 10 = system: Escherichia coli TOP 10
[2] = system: Aeromonas veronii X-1-06909
[3] = system: Salmonella enterica subsp. enterica serovar Pullorum CVCC 533
[4] = system: Escherichia coli CVCC O157
[5] = system: Staphylococcus aureus ATCC 546
Staphylococcus hyicus = system: Staphylococcus hyicus
[6] = system: Escherichia coli CVCC 25922
[7] = system: Salmonella enterica subsp. enterica serovar Typhimurium ATCC 14028
[8] = system: Escherichia coli CVCC 195
[9] = system: Staphylococcus hyicus NCTC 10350
[10] = system: Escherichia coli CVCC 1515
[11] = system: Staphylococcus aureus ATCC 43300
[12] = system: Pseudomonas aeruginosa CICC 21630
[13] = system: Salmonella enterica subsp. enterica serovar Pullorum CVCC 1809
[14] = system: Salmonella enterica subsp. enterica serovar Enteritidis CVCC 3377
[15] = system: Candida albicans CMCC 98001
[16] = system: Salmonella enterica subsp. enterica serovar Pullorum CVCC 1789
[17] = system: Aeromonas veronii ATCC 35624
[18] = system: Staphylococcus aureus ATCC 25923
Aeromonas veronii CL0901 = system: Aeromonas veronii CL0901
[19] = system: Salmonella enterica ATCC 6539
[20] = system: Escherichia coli ATCC 25922
[21] = system: Acinetobacter baumannii ATCC BAA-747
[22] = system: Klebsiella pneumoniae ATCC 700603
[23] = system: Enterococcus faecium ATCC 700221
[24] = system: Pseudomonas aeruginosa ATCC 27853
[25] = system: Salmonella enterica subsp. enterica serovar Typhimurium ATCC 13311
[26] = system: Listeria monocytogenes 10403s
[27] = system: Staphylococcus epidermidis ATCC 12228
Vibrio cholerae O1 Inaba = system: Vibrio cholerae O1 Inaba
[28] = system: Bacillus cereus ATCC 11778
Escherichia coli O157:H7 = system: Escherichia coli O157:H7
Acinetobacter baumannii = system: Acinetobacter baumannii
[29] = system: Enterococcus faecalis ATCC 29212
[30] = system: Shigella sonnei ATCC 11060
[31] = system: Staphylococcus aureus SH1000
[32] = system: Staphylococcus aureus 209P
Escherichia coli C600 = system: Escherichia coli C600
[33] = system: Pseudomonas aeruginosa PAO1
Candida albicans = system: Candida albicans
[34] = system: Candida albicans CGMCC 2.2086
[35] = system: Candida tropicalis CGMCC 2.1975
[36] = system: Candida parapsilosis CGMCC 2.3989

Compound: NCCCC[C@H](NC(=O)[C@H](CC(=O)O)NC(=O)[C@H](CC(=O)O)NC(=O)[C@H](CC(=O)O)NC(=O)[C@@H](N)CC(=O)O)C(=O)O [DDDDK]
MIC [1]: ≥ 90 µM

MIC (Escherichia coli TOP 10): 12 µM (≈ 25 µg/mL)
Compound: CC[C@H](C)[C@H](NC(=O)[C@H](C)NC(=O)[C@H](CS)NC(=O)[C@H](CC(C)C)NC(=O)[C@@H](NC(=O)[C@H](C)NC(=O)[C@H](CCCN=C(N)N)NC(=O)[C@@H](NC(=O)[C@@H](NC(=O)[C@H](CCCCN)NC(=O)[C@@H](NC(=O)[C@@H](NC(=O)[C@@H]1CCCN1C(=O)CNC(=O)[C@H](CC(C)C)NC(=O)[C@@H](N)Cc1ccccc1)[C@@H](C)CC)[C@@H](C)CC)[C@@H](C)O)C(C)C)C(C)C)C(=O)N[C@@H](CCCCN)C(=O)N[C@@H](CCCCN)C(=O)N[C@@H](CC(C)C)C(N)=O [FLGPIIKTVRAVLCAIKKL]

MIC [3]: 13.2 µM (≈ 32 µg/mL)
MIC [4]: 3.31 µM (≈ 7.99 µg/mL)
MIC [5]: 26.5 µM (≈ 63.9 µg/mL)
MIC (Staphylococcus hyicus): 26.5 µM (≈ 63.9 µg/mL)
MIC [6]: 3.31 µM (≈ 7.99 µg/mL)
MIC [7]: 6.62 µM (≈ 16 µg/mL)
MIC [8]: 3.31 µM (≈ 7.99 µg/mL)
MIC [9]: ≥ 52.9 µM
MIC [10]: 1.65 µM (≈ 4 µg/mL)
MIC [11]: > 26.5 µM
MIC [12]: 26.5 µM (≈ 63.9 µg/mL)
MIC [13]: 3.31 µM (≈ 7.99 µg/mL)
MIC [14]: 0.827 µM (≈ 2 µg/mL)
MIC [15]: ≥ 52.9 µM
MIC [16]: 6.62 µM (≈ 16 µg/mL)
MIC [18]: > 26.5 µM
Compound: CC(C)[C@@H]1NC(=O)CNC(=O)[C@H](CC(N)=O)NC(=O)[C@H](CCCN=C(N)N)NC(=O)[C@H](Cc2ccc(O)cc2)NC(=O)[C@H](C(C)C)NC(=O)[C@@H](NC(=O)[C@@H](NC(=O)[C@H](CC(N)=O)NC(=O)[C@H](Cc2c[nH]c3ccccc23)NC(=O)[C@H](C)NC(=O)[C@H](Cc2ccccc2)NC(=O)CN)C(C)C)CSSC[C@@H](C(=O)N[C@@H](Cc2cnc[nH]2)C(=O)N[C@@H](CCCN=C(N)N)C(=O)N2CCC[C@H]2C(=O)N[C@@H](C)C(=O)N[C@@H](CC(N)=O)C(N)=O)NC(=O)[C@H](C(C)C)NC(=O)[C@H](CCCN=C(N)N)NC1=O [GFAWNVCVYRNGVRVCHRPAN]
MIC [2]: 26.5 µM (≈ 63.9 µg/mL)
MIC [17]: 26.5 µM (≈ 63.9 µg/mL)
MIC (Aeromonas veronii CL0901): 26.5 µM (≈ 63.9 µg/mL)

MIC [19]: ≥ 476 µM
MIC [20]: > 476 µM
MIC [11]: > 476 µM
MIC [21]: ≥ 476 µM
MIC [22]: > 476 µM
MIC [23]: ≥ 476 µM
MIC [24]: > 476 µM
Compound: NCC(=O)NCC(=O)N[C@@H](Cc1cnc[nH]1)C(=O)O [GGH]

MIC [25]: 0.905 µM (≈ 1.95 µg/mL)
MIC [20]: 3.63 µM (≈ 7.81 µg/mL)
MIC [26]: 1.82 µM (≈ 3.91 µg/mL)
MIC [27]: 1.82 µM (≈ 3.91 µg/mL)
MIC [28]: 1.82 µM (≈ 3.91 µg/mL)
MIC (Escherichia coli O157:H7): 29 µM (≈ 62.5 µg/mL)
MIC [24]: 3.63 µM (≈ 7.81 µg/mL)
MIC (Acinetobacter baumannii): 3.63 µM (≈ 7.81 µg/mL)
MIC [29]: 7.26 µM (≈ 15.6 µg/mL)
MIC [18]: 3.63 µM (≈ 7.81 µg/mL)
MIC [30]: 1.82 µM (≈ 3.91 µg/mL)
Compound: CC[C@H](C)[C@H](NC(=O)[C@H](CCCN=C(N)N)NC(=O)[C@H](CCCCN)NC(=O)[C@H](C)NC(=O)[C@@H](NC(=O)[C@@H](N)CCCCN)[C@@H](C)CC)C(=O)N[C@@H](Cc1c[nH]c2ccccc12)C(=O)N[C@@H](CCCCN)C(=O)N[C@H](C(=O)N[C@@H](CC(C)C)C(=O)N[C@@H](CCCN=C(N)N)C(=O)N[C@@H](CCCN=C(N)N)C(=O)N[C@@H](CCCN=C(N)N)C(=O)N[C@@H](CC(C)C)C(=O)N[C@@H](Cc1ccccc1)C(=O)N[C@@H](CCCN=C(N)N)C(N)=O)[C@@H](C)CC [KIAKRIWKILRRRLFR]
MIC (Vibrio cholerae O1 Inaba): 1.82 µM (≈ 3.91 µg/mL)

MIC [31]: ≥ 100 µM
Compound: CC[C@H](C)[C@H](NC(=O)[C@H](CC(=O)O)NC(=O)[C@H](CC(C)C)NC(=O)[C@H](CC(C)C)NC(=O)[C@@H](N)CCCCN)C(=O)N[C@H](C(=O)N[C@@H](CCCCN)C(=O)N[C@@H](CCCCN)C(=O)N[C@H](C(=O)N[C@H](C(=O)NCC(=O)N[C@@H](C)C(=O)N[C@@H](CC(C)C)C(=O)NCC(N)=O)C(C)C)C(C)C)C(C)C [KLLDIVKKVVGALG]

MIC [32]: 6.25 µM (≈ 14.1 µg/mL)
MIC (Escherichia coli C600): 1.56 µM (≈ 3.51 µg/mL)
MIC [33]: 12.5 µM (≈ 28.2 µg/mL)
Compound: CC[C@H](C)[C@@H]1NC(=O)CNC(=O)[C@H](CCCN=C(N)N)NC(=O)[C@H](Cc2ccc(O)cc2)NC(=O)[C@@H]2CSSC[C@H](NC1=O)C(=O)N[C@@H](Cc1ccc(O)cc1)C(=O)N[C@@H](CCCN=C(N)N)C(=O)N[C@@H](CCCN=C(N)N)C(=O)N[C@H](C(=O)N[C@@H](CCCN=C(N)N)C(=O)O)CSSC[C@H](NC(=O)[C@H](Cc1c[nH]c3ccccc13)NC(=O)[C@@H](N)CCCCN)C(=O)N[C@@H](Cc1ccccc1)C(=O)N[C@@H](CCCN=C(N)N)C(=O)N[C@@H](CO)C(=O)N2 [KWCFRSCYRGICYRRCR]

MIC (Candida albicans): 2.83 µM and 4 µM
MIC [34]: 4 µM (≈ 9.45 µg/mL)
MIC [35]: 2 µM (≈ 4.73 µg/mL)
MIC [36]: 4 µM (≈ 9.45 µg/mL)
Compound: CC[C@H](C)[C@H](NC(=O)CNC(=O)[C@H](CCCN=C(N)N)NC(=O)[C@H](Cc1c[nH]c2ccccc12)NC(=O)[C@H](CC(C)C)NC(=O)[C@H](CC(C)C)NC(=O)[C@H](Cc1c[nH]c2ccccc12)NC(=O)[C@H](CCCN=C(N)N)NC(=O)CNC(=O)[C@@H](NC(=O)[C@@H](N)CCCN=C(N)N)[C@@H](C)CC)C(=O)N[C@@H](CCCN=C(N)N)C(=O)N[C@@H](CCCN=C(N)N)C(=O)N[C@H](C(=O)NCC(=O)N[C@@H](CCCN=C(N)N)C(=O)N[C@@H](Cc1c[nH]c2ccccc12)C(=O)N[C@@H](CC(C)C)C(N)=O)[C@@H](C)CC [RIGRWLLWRGIRRIGRWL]
